Reference: ChEMBL document CHEMBL5257097, “An Isomer of Galidesivir That Potently Inhibits Influenza Viruses and Members of the Bunyavirales Order” (ACS Med Chem Lett, 2023)
pEC50: −log10 of the molar value.

Legend:
Sudan ebolavirus = assay: Antiviral activity against SUDV infected in human HeLa cells assessed as reduction in viral cytopathic effect; type: functional, organism-based
[1] = Cytotoxicity against African green monkey Vero cells infected with DENV-2 assessed as reduction in cell viability by neutral red dye based assay; type: toxicity; conditions: chlorocebus sabaeus
[2] = Cytotoxicity against African green monkey Vero cells infected with DENV-2 assessed as reduction in cell viability by visual assay; type: toxicity, cell-based; conditions: chlorocebus sabaeus
[3] = Cytotoxicity against vervet monkey MA-104 cells infected with MERS-CoV assessed as reduction in cell viability by neutral red dye based assay; type: toxicity; conditions: cercopithecus pygerythrus
[4] = (§1) Selectivity index, ratio of CC50 for cytotoxicity against dog MDCK cells infected with Influenza A virus H1N1 assessed as reduction in cell viability by visual analysis to EC90 for antiviral activity against Influenza A virus H1N1 infected in dog MDCK cells assessed as reduction in viral yield by visual analysis; type: toxicity, cell-based
[5] = as §1, with “African green monkey Vero 76” for “dog MDCK”, “Punta Toro” for “Influenza A”, “virus” for “virus H1N1”, “neutral red dye based” for “visual”, “EC50” for “EC90”, “replication” for “yield”; type: toxicity; conditions: read-out: Ratio CC50/EC50
[6] = (§2) Selectivity index, ratio of CC50 for cytotoxicity against African green monkey Vero E6 cells infected with Maporal virus assessed as reduction in cell viability to EC90 for antiviral activity against Maporal virus infected in African green monkey Vero E6 cells assessed as reduction in viral yield; type: toxicity, cell-based, Vero C1008
[7] = Cytotoxicity against dog MDCK cells infected with Influenza A virus H7N9 assessed as reduction in cell viability by neutral red dye based analysis; type: toxicity, Canis lupus familiaris
[8] = (§3) Selectivity index, ratio of CC50 for cytotoxicity against dog MDCK cells infected with Influenza A virus H3N2 assessed as reduction in cell viability by neutral red dye based analysis to EC50 for antiviral activity against Influenza A virus H3N2 infected in dog MDCK cells assessed as inhibition of viral replication by neutral red dye based analysis; type: toxicity; conditions: read-out: Ratio CC50/EC50
[9] = Cytotoxicity against African green monkey Vero E6 cells infected with JUNV assessed as reduction in cell viability by visual analysis; type: toxicity, cell-based, Vero C1008; conditions: chlorocebus sabaeus
Oropouche virus = assay: Antiviral activity against Oro-pouche virus infected in African green monkey Vero E6 cells assessed as inhibition of viral replication by neutral red dye based analysis; type: functional, organism-based; conditions: Vero C1008
Influenza A virus = assay: Antiviral activity against Influenza A virus H3N2 infected in dog MDCK cells assessed as inhibition of viral replication measured after 15 to 30 mins by visual analysis; type: functional, organism-based
[10] = as §3, with “H7N9” for “H3N2”, “visual” for “neutral red dye based”; type: toxicity, cell-based; conditions: read-out: Ratio CC50/EC50
[11] = as §1, with “H3N2” for “H1N1”; type: toxicity, cell-based
La Crosse virus = assay: Antiviral activity against La Crosse virus infected in African green monkey Vero E6 cells assessed as inhibition of viral replication by visual analysis; type: functional, organism-based; conditions: Vero C1008
[12] = as §2, with “76” for “E6”, “Rift Valley fever” for “Maporal”; type: toxicity, cell-based
[13] = as §3, with “African green monkey Vero E6” for “dog MDCK”, “Oropouche” for “Influenza A”, “virus” for “virus H3N2”, “reduction in” for “inhibition of”; type: toxicity, Vero C1008; conditions: read-out: Ratio CC50/EC50
Tacaribe virus = assay: Antiviral activity against Tacaribe virus infected in African green monkey Vero cells assessed as inhibition of viral replication by visual analysis; type: functional, organism-based; conditions: Mammarenavirus tacaribeense
[14] = Cytotoxicity against dog MDCK cells infected with Influenza B virus assessed as reduction in cell viability by neutral red dye based analysis; type: toxicity, Canis lupus familiaris
[15] = as §2, with “76” for “E6”, “MERS-CoV” for “Maporal virus”, “viability by visual analysis” for “viability”, “EC50” for “EC90”, “virus-induced cytopathic effect by visual analysis” for “viral yield”; type: toxicity, cell-based; conditions: read-out: Ratio CC50/EC50
[16] = as §3, with “African green monkey Vero” for “dog MDCK”, “Pichinde” for “Influenza A”, “virus” for “virus H3N2”, “reduction in” for “inhibition of”; type: toxicity; conditions: read-out: Ratio CC50/EC50
Punta Toro virus = assay: Antiviral activity against Punta Toro virus infected in African green monkey Vero 76 cells assessed as inhibition of viral replication by visual analysis; type: functional, organism-based

`Nc1ncnc2c([C@@H]3N[C@H](CO)[C@@H](O)[C@H]3O)c[nH]c12` [GALIDESIVIR] gave a pEC50 (Sudan ebolavirus) of 5.52, a CC50 [1] greater than 100000 nM and a CC50 [2] greater than 100000 nM. The CC50 [3] was greater than 100000 nM.
In the case of `Nc1ncnn2c([C@@H]3N[C@H](CO)[C@@H](O)[C@H]3O)ccc12`, the selectivity ratio [4] was 240, the selectivity ratio [5] was 37 and the selectivity ratio [6] was 15. The CC50 [7] was 30000 nM, the selectivity ratio [8] was 44 and the CC50 [9] was 12000 nM. The pEC50 (Oropouche virus) was 6.70, the pEC50 (Influenza A virus) was 6.49 and the selectivity ratio [10] was 76. The selectivity ratio [11] was 64, the pEC50 (La Crosse virus) was greater than 7.00 and the selectivity ratio [12] was 78. It also gave a selectivity ratio [13] of 75, a pEC50 (Tacaribe virus) of 6.43 and a CC50 [14] of 9800 nM. The selectivity ratio [15] was 31, the selectivity ratio [16] was 28 and the pEC50 (Punta Toro virus) was 6.49.
